In ChEMBL document CHEMBL1152733, “Specificities of calreticulin transacetylase to acetoxy derivatives of 3-alkyl-4-methylcoumarins: effect on the activation of nitric oxide synthase” (Bioorg Med Chem, 2009):
Active and inactive are the calls of the source. The calls are words filed in the database; no cut-off is given here.

How the values were obtained:
[1] = species on record: Rattus norvegicus; test: Inhibition of rat liver microsomal CRTAase catalyzed activation of NADPH cytochrome C reductase
[2] = species on record: Rattus norvegicus; test: Inhibition of rat liver microsomal CRTAase-mediated inhibition of cytosolic glutathione S-transferase activity
[3] = test system: Platelet; test: Increase in NO levels in citreated human platelet rich plasma assessed as enhancement of dichloro fluorescein fluorescence by flow cytometry; type: functional

SMILES	Activity [1]	Activity [2]	Activity [3]
CCCCCCCCCCc1c(C)c2ccc(OC(C)=O)c(OC(C)=O)c2oc1=O	Active	Active	Active
CCCCCCc1c(C)c2ccc(OC(C)=O)c(OC(C)=O)c2oc1=O	Active	Active	Active
CCCCCCc1c(C)c2ccc(OC(C)=O)cc2oc1=O	Active	Active	Active
CCCCCCCCCCc1c(C)c2ccc(OC(C)=O)cc2oc1=O	Active	Active	Active
CCc1c(C)c2ccc(OC(C)=O)c(OC(C)=O)c2oc1=O	Active	Active	Active

Now from value to compound, other results behind:

Activity [1]	Activity [2]	SMILES	Activity [3]
Active	Active	CC(=O)Oc1ccc2c(C)cc(=O)oc2c1	Active
Active	Active	CCc1c(C)c2ccc(OC(C)=O)cc2oc1=O	Active
Active	Active	CC(=O)Oc1ccc2c(C)cc(=O)oc2c1OC(C)=O	Active
